The values that follow come from PMC12084297, “Cytoplasmic connexin43-microtubule interactions promote glioblastoma stem-like cell maintenance and tumorigenicity” (Cell Death & Disease, 2025).

One test has as its system Cx43. The test is described as follows: Cx43 protein expression, immunoblot, VTC-037 GSCs. Type of test: cell-based, human. The conditions noted are these: 50 μM, 24 h. How it is done: Cells were lysed in RIPA buffer (0.1% sodium dodecyl sulphate, 50 mM Tris pH 7.4, 150 mM NaCl, 1 mM EDTA, 1% Triton X-100, 1% deoxycholic acid, 200 μM Na3VO4, and 1 mM NaF) supplemented with Halt^TM Protease and Phosphatase Inhibitor Cocktail (Thermo Fisher). Lysates were sonicated prior to centrifugation at 4 °C for 20 min at 10,000 x g. Protein concentration was quantified using the DC protein assay (Bio-Rad Laboratories) and a standard curve obtained with increasing concentrations of Bovine Serum Albumin (BSA; Fisher Scientific). Protein samples were normalized to 20 μg total protein per lane and resolved by SDS-PAGE electrophoresis. 4X Bolt LDS sample buffer supplemented with 400 mM DTT (final concentration 1X Bolt LDS with 100 mM DTT) was added to samples before heating at 70 °C for 10 min. SDS-PAGE was run using NuPAGE Bis-Tris 4%–12% gradient gels (Thermo Fisher) with MES or MOPS running buffer according to manufacturer’s instructions. Spectra™ Multicolor Protein Ladder (Thermo Fisher) or Precision Plus Protein™ Kaleidoscope™ Prestained Protein Standards (Bio-Rad Laboratories) were included as protein ladders on the same gels. […] Membranes were imaged on a ChemiDoc™ imaging system, and analyzed with Image Lab software (Bio-Rad Laboratories). […]
In general terms: Immunoblotting shows a protein as a band on a membrane.

The next test deals with α-tubulin. The test is described as follows: Co-immunoprecipitation with α-tubulin antibody: peptide interaction with α-tubulin. The settings on record: VTC-037 GSCs, 50 μM, 24 h, cross-linked (DTBP); compared to antennapedia alone or JM2-scrambled; NeutrAvidin-HRP detection. Type of test: binding, human. On the procedure:
Prior to lysis, cross-linking was completed by incubating cells in DTBP (dimethyl 3,3’-dithiobispropionimidate; 2 mM in PBS) for 30 min at 37 °C followed by a glycine quench (100 mM glycine in PBS) for 15 min at room temperature. Cross-linked samples were lysed in RIPA buffer supplemented with Halt^TM Protease and Phosphatase Inhibitor Cocktail as described above, but without sonication. Co-immunoprecipitation (co-IP) assays were also performed without cross-linking; non-cross-linked samples were lysed using a co-IP lysis buffer (0.5% Triton X-100, 50 mM Tris HCl, 150 mM NaCl, 1 mM EDTA, 1 mM EGTA, 1 mM DTT, 0.1 mM Na3VO4, and 1 mM NaF) supplemented with Halt^TM Protease and Phosphatase Inhibitor Cocktail, without sonication. Protein concentration was quantified using the DC protein assay and a standard curve obtained with increasing concentrations of BSA, and 500 μg of total protein was used per reaction for co-IP. Inputs were removed prior to co-IP and denatured in Bolt LDS sample buffer as described above. Remaining protein lysates were incubated with Protein G Sepharose^TM 4 Fast Flow beads (GE Healthcare) for pre-clearance for 30 min at 4 °C. Samples were incubated with 2 μg of mouse anti-α-tubulin (MilliporeSigma, T6199) for cross-linked samples or mouse anti-Cx43 antibody (EMD Millipore; MAB3067) for non-cross-linked samples for 90 min at 4 °C. […]

Another test concerns HEY1 mRNA. The test is described as follows: HEY1 mRNA by RT-qPCR, VTC-037 GSCs. Type of test: cell-based, human. The conditions noted are these: 50 μM, 24 h, compared to JM2-scrambled. On the procedure:
RNA was extracted using the PureLink^TM RNA mini extraction kit (Thermo Fisher) and on-column DNA digestion was completed using PureLink^TM DNase according to the manufacturer’s instructions. RNA was reverse transcribed to generate cDNA using the iScript^TM Reverse Transcription SuperMix for RT-qPCR kit (Bio-Rad Laboratories). Real-time PCR was performed using the SYBR select Master Mix for CFX (Thermo Fisher) in hard-shell 96-well PCR plates (Bio-Rad Laboratories) on a CFX Connect Real Time System (Bio-Rad Laboratories). Primer sequences used were: hNOTCH1_Fwd: 5’-CGCACAAGGTGTCTTCCAG-3’; hNOTCH1_Rev: 5’-CGGCGTGTGAGTTGATGA-3’; hHES1_Fwd: 5’-GGCTGGAGAGGCGGCTAA-3’; hHES1_Rev: 5’-[…]-3’; hHEY1_Fwd: 5’-[…]-3’; hHEY1_Rev: 5’-[…]-3’.

VFFKGVKDRVKGRSD [JM2]: the Cx43 protein expression result in the test on Cx43 was “without affecting Cx43 expression”. In addition, in the test on α-tubulin, the “Interaction of peptide with α-tubulin (co-IP)” value is listed as “robustly interacted with α-tubulin”. Further, the “Hey1 mRNA expression” value with HEY1 mRNA was “significantly decreased the expression of Notch downstream targets Hes1 and Hey1 at the transcription level”.
